Measurements as given in patent publication US8822528B2, “Monensin derivatives for the treatment and prevention of protozoal infections” (Merial Limited, priority 2010, dated 2014).

Key:
Eimeria tenella = assay: In vitro efficacy against Eimeria tenella in infected MDBK cell culture (schizonts/merozoites counted microscopically); assay type: cell-based; set-up: Activity in inhibiting development of Eimeria tenella in vitro (schizonts and merozoites) / Presence of schizonts/merozoites (microscopic observation, picture): dose or concentration left out as unconfirmed; conditions: for Activity in inhibiting development of Eimeria tenella in vitro (schizonts and merozoites) / Presence of schizonts/merozoites (microscopic observation, picture): second series; for Activity in inhibiting development of Eimeria tenella in vitro (schizonts and merozoites): one concentration of 3.125 (FIG. 30A); for Inhibition of the parasite Eimeria tenella / Development of Eimeria tenella in vitro: third series; for Inhibition of the parasite Eimeria tenella: at low concentrations (FIG. 31B); for Activity towards the parasite Eimeria tenella (summary): summary of in vitro testing of fifteen polyether ionophores; for Inhibition of development of Eimeria tenella in cell culture (formation of merozoites): five different concentrations in the presence of the parasite (FIG. 30); for Presence of schizonts/merozoites (microscopic observation, picture): 3.125, FIG. 30B/30C; for Development of Eimeria tenella in vitro: at very low concentrations (<0.39 μg/μL) (FIG. 31B)
Experimental: Once the IC50 concentration was determined, the test was performed on infected cells. The working concentration chosen was always lower than IC50.
After having cultured cells at 40° C. in each well of a 96-well plate, they were treated with a specific concentration (<IC50, allowing the inhibition of parasites in over 50% of cells) of polyether ionophore. Then, the sporozoites of Eimeria tenella were excysted and the cells infected with purified sporozoites. After incubation for 24 hrs at 40° C., the medium was changed. The efficiency of molecules was evaluated microscopically after 40 hrs and 48 hrs. The release of merozoites was noted (FIG. 30B). Thus, in explicit cases, the merozoites released were counted; in ambiguous cases, the quantitative PCR ([…]) will be used. For each test, a positive control of treatment (with monensin 1a) and a positive control of infection was made.

MDBK cells = assay: Cytotoxicity testing / IC50 determination on MDBK cells (Cell Titer, tetrazolium to formazan, 96-well); assay type: cell-based, Bovine; conditions: summary statement
Excerpt: Cytotoxicity testing. For the prevention and the treatment, a compound is considered effective when it is non toxic or its toxicity is low for host cells but high for the target (parasite). For cytotoxicity testing and determination of the IC50, the in vitro model is one of the best methods, enabling this type of testing to be carried out directly on cells alone without fear of fatal consequences as in vivo. The IC50 is the maximum concentration at which at least 50% of cells survive following a treatment. All concentrations above it are excluded for the test; values below it, on the other hand, can be tested in order to determine the concentration that will totally or partially eliminate the parasite or inhibit its development. This test consists in testing several concentrations on cell culture in 96-well plate; the concentrations are tested in duplicate, and the cytotoxicity of the molecules is evaluated with special kits based on an oxidation-reduction reaction at the cell-machinery level (mitochondria).
As in the MTT kit (Promega), the reagent used is the tetrazolium salt MTT (3-[4,5-dimethylthiazol-2-yl]-2,5-diphenyltetrazolium bromide). The tetrazolium ring that it contains is reduced to formazan by the mitochondrial succinate dehydrogenase of active living cells. The color of the medium thus changes from yellow to purplish-blue. The intensity of this color is proportional to the number of living cells present at the time of testing but also to their metabolic activity. The percentage of living cells is determined from the ratio between the absorbance for the test well and the absorbance for the control well (cells alone).
Initially, the inhibitory concentration IC50 was determined. It corresponded to the concentration of polyether ionophore allowing the viability of 50% of cells. Bovine cells were cultured and incubated for 24 hrs at 40° C. in the wells of a 96-well plate. Then, a fixed concentration ([…]) of polyether ionophore was added to each well. The cells were incubated at 40° C. for 24 hrs. 20 μL, of “Cell Titer” was added to each well. The cells were again incubated for 30 min to 1 hour at 40° C. before the plate was read in a plate reader at a wavelength of 490 nm (maximum absorption of the formazan). This reading determined the optical density (OD) of each well and allowed access to the percentage of inhibition. I50=(ODtreated/ODcontrol)×100 […]=[1−(ODtreated/ODcontrol)]×100.
FIG. 26 represents a 96-well plate after adding “Cell Titer”. The intensity of colours depends on the toxicity of the polyether ionophore tested. Increasing color intensity corresponded to increasing number of living cells. […]

For `CCC1(C2OC(C3OC(O)(CO)C(C)CC3C)CC2C)CCC(C2(C)CCC3(CC(O)C(C)C(C(C)C(OC)C(C)C(=O)NC(C(=O)OC)c4ccc(F)cc4)O3)O2)O1` (stereo not drawn) [Compound 4c, Methyl 2′-(monensinamido)-2′-(4′-fluorophenyl)acetate], the “Activity in inhibiting development of Eimeria tenella in vitro (schizonts and merozoites)” value (from here on “Activity in inhibiting development”) (Eimeria tenella) was “no significant activity”.

`CCC12CCC(O1)C1(C)CCC3(CC(=O)C(C)C(O3)C(C)C(OC)C(C)C(=O)OCC(=O)C(C)CC(C)C(=O)C3CC(C)C2O3)O1` (stereo not drawn) [Compound 18, Triacetone Lactone] was tested, and the “Inhibition of the parasite Eimeria tenella” value (Eimeria tenella) was “did not inhibit”.

`CCC1(C2OC(C3OC(=O)C(C)CC3C)CC2C)CCC(C2(C)CCC3(CC(=O)C(C)C(C(C)C(OC)C(C)C(=O)O)O3)O2)O1` (stereo not drawn) [Compound 19, oxo-lactone Monensin] was tested, and the “Activity in inhibiting development” value (Eimeria tenella) was “significant efficacy”, the “Activity towards the parasite Eimeria tenella (summary)” value (Eimeria tenella) was “satisfactory and encouraging results” and the “Cytotoxicity (summary in words)” value (MDBK cells) was “very low cytotoxicities”.

In the case of `CC[C@@]1([C@@H]2O[C@@H]([C@H]3O[C@@](O)(CO)[C@H](C)C[C@@H]3C)C[C@@H]2C)CC[C@H]([C@]2(C)CC[C@]3(C[C@H](O)[C@@H](C)[C@@H]([C@@H](C)[C@@H](OC)[C@H](C)C(=O)O)O3)O2)O1` [Compound 1a, Monensin], the “Inhibition of development of Eimeria tenella in cell culture (formation of merozoites)” value (“Inhibition … (formation of merozoites)” for short) (Eimeria tenella; first series) is reported as “inhibited the formation of merozoites at very low concentrations”.

For `CCC1(C2OC(C(O)C(C)CC(C)C(=O)O)CC2C)CCC(C2(C)CCC3(CC(=O)C(C)C(C(C)C(OC)C(C)C(=O)O)O3)O2)O1` (stereo not drawn) [Compound 31, 7-oxo, 21-hydroxy, 25-acid Monensin], the “Concentration at which significantly effective against the parasite” value (Eimeria tenella; third series (FIG. 31B)) was “greater than 1.56 g/μL” and the “Inhibition of the parasite Eimeria tenella” value (Eimeria tenella) was “did not inhibit”.

`CCC12CCC(O1)C1(C)CCC3(CC(OC)C(C)C(O3)C(C)C(OC)C(C)C(=O)OCC3(OC)OC(C(C)CC3C)C3CC(C)C2O3)O1` (stereo not drawn) [Compound 14a, 7,25-dimethoxylactone] was tested, and the “Presence of schizonts/merozoites (microscopic observation, picture)” value (from here on “Presence of schizonts/merozoites”) (Eimeria tenella) was “merozoites present” and the “Activity in inhibiting development” value (Eimeria tenella) was “no significant activity”.

For `CCC1(C2OC(C3OC4(COC(=O)CO4)C(C)CC3C)CC2C)CCC(C2(C)CCC3(CC(O)C(C)C(C(C)C(OC)C(C)C(=O)O)O3)O2)O1` (stereo not drawn) [Compound 12, Oxo-dioxane Monensin], the “Activity towards the parasite Eimeria tenella (summary)” value (Eimeria tenella) was “significant activity”, the “Development of Eimeria tenella in vitro” value (Eimeria tenella) was “completely inhibited” and the “Cytotoxicity (summary in words)” value (MDBK cells) was “very low cytotoxicities”.

With `CCC1(C2OC(C3OC(O)(CO)C(C)CC3C)CC2C)CCC(C2(C)CCC3(CC(O)C(C)C(C(C)C(OC)C(C)C(=O)NCc4ccc(C(=O)O)cc4)O3)O2)O1` (stereo not drawn) [Compound 6a, 1-(benzoic acid)methylene Amidomonensine] the “Inhibition … (formation of merozoites)” value (Eimeria tenella; first series) was “did not appear to significantly inhibit”.

`CCC1(C2OC(C3OC(CO)(OCC(=O)O)C(C)CC3C)CC2C)CCC(C2(C)CCC3(CC(O)C(C)C(C(C)C(OC)C(C)C(=O)O)O3)O2)O1` (stereo not drawn) [Compound 27, O-25-glycolic Acid Monensin] was tested, and the “Activity towards the parasite Eimeria tenella (summary)” value (Eimeria tenella) was “significant activity”, the “Development of Eimeria tenella in vitro” value (Eimeria tenella) was “completely inhibited” and the “Cytotoxicity (summary in words)” value (MDBK cells) was “very low cytotoxicities”.

With `CCC12CCC(O1)C1(C)CCC3(CC(O)C(C)C(O3)C(C)C(OC)C(C)C(=O)OCC3(O)OC(C(C)CC3C)C3CC(C)C2O3)O1` (stereo not drawn) [Compound 7, Monensin Lactone] the “Concentration at which formation of merozoites was inhibited” value (Eimeria tenella; first series, at high concentrations (FIG. 30)) was “greater than or equal to 12.5 g/μL”.

`CCC1(C2OC(C3OC4(COC(=O)CO4)C(C)CC3C)CC2C)CCC(C2(C)CCC3(CC(=O)C(C)C(C(C)C(OC)C(C)C(=O)O)O3)O2)O1` (stereo not drawn) [Compound 26, 7-oxo-monensin Oxodioxane] was tested, and the “Inhibition of the parasite Eimeria tenella” value (Eimeria tenella) was “did not inhibit”.

With `CCC1(C2OC(C3OC(O)(CO)C(C)CC3C)CC2C)CCC(C2(C)CCC3(CC(O)C(C)C(C(C)C(OC)C(C)C(=O)NCc4ccccc4)O3)O2)O1` (stereo not drawn) [Compound 3a, 1-benzylamidomonensine] the “Inhibition … (formation of merozoites)” value (Eimeria tenella; first series) was “did not appear to significantly inhibit”.

In the case of `CCC1(C2OC(C3OC(CO)(OC)C(C)CC3C)CC2C)CCC(C2(C)CCC3(CC(O)C(C)C(C(C)C(OC)C(C)C(=O)O)O3)O2)O1` (stereo not drawn) [Compound 8a, 25-Methoxymonensin], the “Presence of schizonts/merozoites” value (Eimeria tenella) is reported as “absence of schizonts and merozoites”, the “Presence of schizonts/merozoites” value (Eimeria tenella; listed as EV 02058) is reported as “merozoites not present” and the “Activity in inhibiting development” value (Eimeria tenella) is reported as “very high efficacy”. For the same compound, the “Activity towards the parasite Eimeria tenella (summary)” value (Eimeria tenella) was “significant activity” and the “Cytotoxicity (summary in words)” value (MDBK cells) was “very low cytotoxicities”.

For `CCC1(C2OC(C3OC(O)(CO)C(C)CC3C)CC2C)CCC(C2(C)CCC3(CC(O)C(C)C(C(C)C(OC)C(C)C(=O)NCc4cccc(C(=O)OC)c4)O3)O2)O1` (stereo not drawn) [Compound 3c, 1-(3-methylbenzoate)methylene Amidomonensin], the “Activity in inhibiting development” value (Eimeria tenella) was “no significant activity”.

`CCC1(C2OC(C3OC(O)(CO)C(C)CC3C)CC2C)CCC(C2(C)CCC3(CC(O)C(C)C(C(C)C(OC)C(C)C(=O)NCc4ccc(C(=O)OC)cc4)O3)O2)O1` (stereo not drawn) [Compound 3b, 1-(4-methylbenzoate)methylene Amidomonensine] was tested, and the “Inhibition … (formation of merozoites)” value (Eimeria tenella; first series) was “did not appear to significantly inhibit”.
